The source of these data is US11382907B2, “Methods and compositions for treating aging-associated impairments using CCR3-inhibitors” (Alkahest, Inc., priority 2017, dated 2022).

The test system of one experiment is aged C57Bl/6 mice. In words: Open Field test in aged mice. The format is in vivo. To be noted: 23-month-old mice; 30 mg/kg SQ BID 21 days, tested three weeks later. On the procedure: Open Field is used to evaluate general locomotor activity and exploratory behavior in a novel environment. Mice are brought to the experimental room for at least 30 min for acclimation to the experimental room conditions (dim lighting) prior to testing. The testing arena consists of a 50 cm×50 cm square arena. Mice are placed in the center of an arena and tracked for 15 minutes. Time spent in the peripheral and centers zones is analyzed, along with rearing behavior. 70% ethanol is used to clean all surfaces between trials.
23-month-old C57Bl/6 mice were dosed with either vehicle control or Compound 1 subcutaneously twice daily for 21 days. Three weeks later, mice were subjected to behavior testing, and sacrificed the day following the last behavior test.

The next experiment has as its target T1, CCR3 receptor (Homo sapiens, UniProt P51677).
T1 sequence (P51677 1-355): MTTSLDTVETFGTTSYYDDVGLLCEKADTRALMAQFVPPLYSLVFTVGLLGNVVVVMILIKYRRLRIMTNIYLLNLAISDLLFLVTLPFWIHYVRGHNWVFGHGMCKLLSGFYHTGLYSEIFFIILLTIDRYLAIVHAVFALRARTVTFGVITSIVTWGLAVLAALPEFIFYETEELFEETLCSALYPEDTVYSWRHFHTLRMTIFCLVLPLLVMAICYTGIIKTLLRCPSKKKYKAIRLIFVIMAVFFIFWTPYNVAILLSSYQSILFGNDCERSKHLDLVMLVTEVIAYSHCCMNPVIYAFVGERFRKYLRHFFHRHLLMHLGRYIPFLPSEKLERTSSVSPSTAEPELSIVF
In words: CCR3 receptor internalization biomarker assay (FACS, whole blood). Format: cell-based.

The subject of experiment [1] is three-month-old C57 mice treated with LPS. The experiment can be described thus: Y maze test in mice given daily LPS. The conditions noted are these: 3-month-old mice; daily LPS 0.5 mg/kg IP; 30 mg/kg PO BID, after 3 weeks. The format is in vivo. On the procedure: A large Y-maze test assesses short-term memory of the familiarity of a specific context. Mice are brought to the experimental room for at least 30 min of acclimation to the experimental room conditions (dim lighting) prior to testing. For the initial training trial, the mouse is placed at the end of one arm of a large Y-maze designated “start arm” (arm length: 15 inches). The third arm of the maze is blocked off, allowing the mouse to explore two of the three arms freely (“start arm” and “familiar arm”) for 5 min. Each arm contains spatial cues. One hour later, the mouse is placed back into the maze in the “start arm” and allowed to explore all three arms with the third arm unblocked (“novel arm”). Movements in and out of each arm are tracked using automated tracking software (CleverSys). Testing is performed under dim lighting, and the apparatus is cleaned with 70% ethanol between trials.
Three-month-old C57 mice were given daily doses of lipopolysaccharide (LPS) 0.5 mg/kg IP to induce inflammation and treated with Compound 1 for up to 4 weeks. […]

In experiment [2] the test system is two-month-old C57Bl/6 mice treated with rmCCL11. The experiment can be described thus: Barnes maze test in young mice given recombinant mouse CCL11. Format: in vivo. The conditions noted are these: 2-month-old mice; rmCCL11 i.p.; Compound 1 30 mg/kg p.o. b.i.d. The text has this: A modified Barnes maze was used to assess spatial working/episodic like learning and memory. The Barnes maze apparatus consists of a 122 cm diameter circular platform with 40 escape holes, each with a diameter of 5 cm placed along three rings of varying distances from the center of the platform. An escape box is attached to one of the holes and all holes are left uncovered. Bright lights and a fan are trained on the maze to provide adverse stimuli to encourage escape. Visual cues are placed on all four sides of the maze. Mice are given a series of 4 or 5 trials with inter-trial intervals of approximately 10 min, and the maximum duration of each trial is 90 or 120 sec. For each trial, mice are placed in the center of the maze. After 10 seconds, mice are allowed to explore, and the trial is ended if the mouse has found and entered an escape box before the end of the trial. Mice that cannot find the escape box are led to it and allowed to enter and given 30 sec to remain before being returned to its home cage. Training is done for 4 days. Data that is recorded and analyzed include velocity, escape latency, and distance moved.
Two-month-old C57Bl/6 mice were dosed with either vehicle control or Compound 1 by oral gavage twice daily for 18 days. During the last week of treatment, mice were subjected to behavior testing prior to perfusion on the last day of treatment. […]

Protocol for CCR3 receptor: The CCR3 receptor internalization assay is FACS-based and uses human Eotaxin-1 (PreProTech, Rocky Hill, N.J.) and an anti-human CCR3 antibody labeled with APC (R&D Systems, Minneapolis, Minn.) or isotype control IgG2A antibody to monitor CCR3 receptor internalization in human eosinophils induced by human eotaxin-1 compared to naïve eosinophils. The median APC fluorescent intensity units for each sample were determined along with the mean of each set of sample triplicates.

For the compound `Cc1cc(C(=O)N(C)C)cc(NC(=O)[C@H]2CCC(=O)N2C2CCN(Cc3ccc(Cl)c(C)c3)CC2)n1` [Compound 1], in the experiment on aged C57Bl/6 mice, the “Open Field distance travelled” value was “strong trends towards improvement” and the “Open Field velocity” value was “strong trends towards improvement”. Also, the half-maximal inhibitory concentration (IC50) on CCR3 receptor is below 100 nM. The “inhibition of CCR3 receptor internalization versus plasma Compound 1 concentration” value at CCR3 receptor (whole blood from humans treated with Compound 1, incubated with human recombinant eotaxin-1) is “robust concentration-dependent effect”. In experiment [1], the “Y maze preference for the novel arm” value is on record as “showed a significant preference for the novel arm”. Also, in experiment [2], the “memory in the Barnes maze” value is recorded as “significantly improved memory performance”.

For orientation: IC50 means the concentration that inhibits the measured activity by half. Low readings indicate greater potency in that assay, high ones weaker potency in that assay.
